Structures can show the parent of a compound that is named as a salt.
Tested on: AGS gastric cancer cell
Assay: MTT cell growth inhibition assay, AGS gastric cancer cells
Type: cell-based
Conditions: Homo sapiens, mean ± SD of three experiments
Description: (§1) Initially, we designed and synthesised seven compounds—9a and 12a1–12a6—and evaluated the anticancer activity and aqueous solubility. We evaluated the cytotoxic effects of these stilbene nitrile analogues against a panel of four human cancer cell lines (HCT-116, BEL-7402, MCF-7 and AGS) and two human non-cancerous normal cell lines (L-02 and MCF-10A), using CA-4 as a control. The compounds were screened for aqueous solubility in 0.01 M PBS using a high throughput UV method. […] It is possible that the size of the nitrogen heterocycle had little effect on the activity of these compounds. […] The aqueous solubility of all the compounds 12a1–12a6 was higher than that of 9a, particularly that of 12a1 and 12a2 containing piperazine rings. […] Of the six compounds with improved aqueous solubility, 12a1 had the best activity.
(§2) All human cell lines were used in this study. AGS gastric cancer cell, BEL-7402 liver cancer cell, HCT-116 colorectal cancer cell, L-02 normal liver cell, MCF-7 breast cancer cell, and MCF-10A normal breast cell were initially purchased from American Type Culture Collection (ATCC, Manassas, VA, USA). RPMI-1640 media, DMEM and FBS, were provided by Gibco Company. The cells were maintained in DMEM or RPMI-1640, supplemented with 10% FBS, 100 IU/mL penicillin and […] streptomycin, and at 37 °C in a humidified atmosphere containing 5% CO2.
(§3) The experiment was carried out according to the method of reference.

Row | IC50 [µM] | SMILES
1 | 11.5 ± 2.32 | COc1cc(/C(C#N)=C/c2ccc(NC(=O)CN3CCNC(C)C3)cc2)cc(OC)c1OC.Cl (stereo not shown) [compound 18]
2 | 5.58 ± 2.33 | COc1cc(/C(C#N)=C/c2ccc(NC(=O)CN3CCNC[C@@H]3C)cc2)cc(OC)c1OC.Cl [compound 19]
3 | 15.2 ± 0.76 | COc1cc(/C(C#N)=C/c2ccc(NC(=O)CN3CCNC[C@H]3C)cc2)cc(OC)c1OC.Cl [compound 20]

Tested on: MCF-7 breast cancer cell
Assay: MTT cell growth inhibition assay, MCF-7 breast cancer cells
Type: cell-based
Conditions: Homo sapiens, MCF7, mean ± SD of three experiments
Description: as §1, §2, §3

Row | IC50 [µM] | SMILES
4 | 12.8 ± 2.96 | COc1cc(/C(C#N)=C/c2ccc(NC(=O)CN3CCNC(C)C3)cc2)cc(OC)c1OC.Cl (stereo not shown) [compound 18]
5 | 15.4 ± 1.88 | COc1cc(/C(C#N)=C/c2ccc(NC(=O)CN3CCNC[C@@H]3C)cc2)cc(OC)c1OC.Cl [compound 19]
6 | 17.3 ± 2.31 | COc1cc(/C(C#N)=C/c2ccc(NC(=O)CN3CCNC[C@H]3C)cc2)cc(OC)c1OC.Cl [compound 20]

Tested on: HCT-116 colorectal cancer cell
Assay: MTT cell growth inhibition assay, HCT-116 colorectal cancer cells
Type: cell-based, human
Conditions: Homo sapiens, HCT-116; MTT; mean ± SD of three experiments
Description: as §1, §2, §3

Row | IC50 [µM] | SMILES
7 | 0.61 ± 0.16 | COc1cc(/C(C#N)=C/c2ccc(C)cc2)cc(OC)c1OC [compound 2, reference compound]
8 | 9.73 ± 0.9 | COc1cc(/C(C#N)=C/c2ccc(NC(=O)CN3CCNC(C)C3)cc2)cc(OC)c1OC.Cl (stereo not shown) [compound 18]
9 | 8.18 ± 0.67 | COc1cc(/C(C#N)=C/c2ccc(NC(=O)CN3CCNC[C@@H]3C)cc2)cc(OC)c1OC.Cl [compound 19]
10 | 10.5 ± 2.32 | COc1cc(/C(C#N)=C/c2ccc(NC(=O)CN3CCNC[C@H]3C)cc2)cc(OC)c1OC.Cl [compound 20]

Tested on: BEL-7402 liver cancer cell
Assay: MTT cell growth inhibition assay, BEL-7402 liver cancer cells
Type: cell-based
Conditions: Homo sapiens, mean ± SD of three experiments, read-out: IC50 BEL-7402 Hepatoma Cells
Description: as §1, §2, §3

Row | IC50 [µM] | SMILES
11 | 4.16 ± 0.97 | COc1cc(/C(C#N)=C/c2ccc(NC(=O)CN3CCNC(C)C3)cc2)cc(OC)c1OC.Cl (stereo not shown) [compound 18]
12 | 4.72 ± 0.99 | COc1cc(/C(C#N)=C/c2ccc(NC(=O)CN3CCNC[C@@H]3C)cc2)cc(OC)c1OC.Cl [compound 19]
13 | 6.53 ± 1.67 | COc1cc(/C(C#N)=C/c2ccc(NC(=O)CN3CCNC[C@H]3C)cc2)cc(OC)c1OC.Cl [compound 20]

Tested on: MCF-10A normal breast cell
Assay: MTT cell growth inhibition assay, MCF-10A normal breast cells
Type: cell-based
Conditions: Homo sapiens, mean ± SD of three experiments, read-out: IC50 MCF-10A Normal Breast Epithelial Cells
Description: as §1, §2, §3

Row | SMILES | IC50 [µM]
14 | COc1cc(/C(C#N)=C/c2ccc(NC(=O)CN3CCNC(C)C3)cc2)cc(OC)c1OC.Cl (stereo not shown) [compound 18] | 14.1 ± 3.71
15 | COc1cc(/C(C#N)=C/c2ccc(NC(=O)CN3CCNC[C@@H]3C)cc2)cc(OC)c1OC.Cl [compound 19] | 16.3 ± 2.14
16 | COc1cc(/C(C#N)=C/c2ccc(NC(=O)CN3CCNC[C@H]3C)cc2)cc(OC)c1OC.Cl [compound 20] | 17.8 ± 2.78

Tested on: L-02 normal liver cell
Assay: MTT cell growth inhibition assay, L-02 normal liver cells
Type: cell-based
Conditions: Homo sapiens, mean ± SD of three experiments
Description: as §1, §2, §3

Row | SMILES | IC50 [µM]
17 | COc1cc(/C(C#N)=C/c2ccc(NC(=O)CN3CCNC(C)C3)cc2)cc(OC)c1OC.Cl (stereo not shown) [compound 18] | 28.4 ± 4.52
18 | COc1cc(/C(C#N)=C/c2ccc(NC(=O)CN3CCNC[C@@H]3C)cc2)cc(OC)c1OC.Cl [compound 19] | 23 ± 2.05
19 | COc1cc(/C(C#N)=C/c2ccc(NC(=O)CN3CCNC[C@H]3C)cc2)cc(OC)c1OC.Cl [compound 20] | 25 ± 2.94

Tested on: not listed separately
Assay: Aqueous solubility in 0.01 M PBS, high throughput UV method
Type: physicochemical
Conditions: Figure 1
Description: as §1
The aqueous solubility was determined as a previously reported procedure. Put simply, a certain amount of powdered compound was placed in a 2 mL centrifuge tube and mixed with an appropriate volume of aqueous phosphate buffer (10 mM, pH 7.4) to make the whole system supersaturated. The mixtures were sonicated (KQ5200DE numerical control ultrasonic cleaner, Kunshan Ultrasonic Instrument Co., Ltd., SuZhou, China) for 20 min. After sonication, the mixture was allowed to equilibrate at RT (22 ± 2 °C) for 1.5 h with vortex shaking (1200 rpm). Then centrifuged at 3000 rpm for 15 min (1-14k, sigma, Darmstadt, Germany), the supernatant was filtered with a 0.22 µM filter membrane. And then, take 150 µL of filtrate and add it to 96-well UV plate with triplicate. Draw 150 μL of blank solution was added into plate as blank control. The 96-well UV plate prepared above was read on a Synergy HTX Multifunctional Microplate Reader (BioTek, Vermont, USA) at 294 nm. The absorbance of the sample was corrected according to the UV response of the sample and blank solution, and the corrected UV response values were used for solubility calculations by bringing into the standard curve of the compound. […]
1.5. Solubility Assessment
The aqueous solubility was determined as previously reported using the high throughput solubility screens procedure published by Bruno Bard et al [9. 10]. Put simply, a certain amount of powdered compound was placed in a 2 ml centrifuge tube and mixed with an appropriate volume of aqueous phosphate buffer (0.01 M, pH 7.4) to make the whole system supersaturated. The mixtures were sonicated (KQ5200DE numerical control ultrasonic cleaner, Kunshan Ultrasonic Instrument Co., Ltd., China) for 20 min. After sonication, the mixture was allowed to equilibrate at room temperature (22 ± 2°C) for 1.5 h with vortex shaking (1200 rpm). Then the centrifuge tube was put into the centrifuge (1-14k, sigma, Germany), centrifuged with 3000 rpm for 15 minutes, 0.22 µM filter membrane filtration supernatant, then take 150 µl filtrate and add it to 96-well UV plate, with three well for each compound. Draw 150 μL blank solution were added into 96 well-plate as blank control. The 96-well UV […]
plate prepared above was read on a SynergyHTX Multifunctional microplate reader (BioTek, USA) at 338 nm (compounds 12a-12d and 15-20) or 370 nm (compounds 9a-d). The absorbance of the sample was corrected according to the UV response of the sample and blank solution, and the corrected UV responses value were used for solubility calculations by bring into the standard curve of the compound. […]

Row | Water solubility (in words) | SMILES
20 | Poor water solubility | COc1cc(/C(C#N)=C/c2ccc(C)cc2)cc(OC)c1OC [compound 2, reference compound]

Same assay, conditions: aqueous phosphate buffer, aqueous buffer; sodium phosphate buffer 0.01 M, pH 7.4, 22 ± 2 °C; mean ± SD

Row | solubility thermodynamic at 1.5 h [µg/mL] | SMILES
21 | 4 | COc1cc(/C(C#N)=C/c2ccc(C)cc2)cc(OC)c1OC [compound 2, reference compound]
22 | 1050 ± 67.3 | COc1cc(/C(C#N)=C/c2ccc(NC(=O)CN3CCNC(C)C3)cc2)cc(OC)c1OC.Cl (stereo not shown) [compound 18]
23 | 79.5 ± 11.1 | COc1cc(/C(C#N)=C/c2ccc(NC(=O)CN3CCNC[C@@H]3C)cc2)cc(OC)c1OC.Cl [compound 19]
24 | 111 ± 12.3 | COc1cc(/C(C#N)=C/c2ccc(NC(=O)CN3CCNC[C@H]3C)cc2)cc(OC)c1OC.Cl [compound 20]

Tested on: not given
Assay: not given
Conditions: not given

Row | melting point [°C] | SMILES
25 | 240 to 243 | COc1cc(/C(C#N)=C/c2ccc(NC(=O)CN3CCN(CCOCCO)CC3)cc2)cc(OC)c1OC (as salt: hydrochloride) [compound 16]
26 | 196 to 200 | COc1cc(/C(C#N)=C/c2ccc(NC(=O)CN3CCN[C@@H](C)C3)cc2)cc(OC)c1OC (as salt: hydrochloride) [compound 17]
27 | 200 to 202 | COc1cc(/C(C#N)=C/c2ccc(NC(=O)CN3CCNC[C@@H]3C)cc2)cc(OC)c1OC.Cl [compound 19]
28 | 200 to 202 | COc1cc(/C(C#N)=C/c2ccc(NC(=O)CN3CCNC[C@H]3C)cc2)cc(OC)c1OC.Cl [compound 20]

— publication PMC9963121, “Development of Combretastatin A-4 Analogues as Potential Anticancer Agents with Improved Aqueous Solubility” (Molecules, 2023)
